# Experiments:
# [1] = target: T1, recombinant HIV-1 RT enzyme (p66/51 dimer) (Human immunodeficiency virus type 1 group M subtype B, UniProt P04585); assay: RT inhibition assay, incorporation of [32P]GTP into poly(rC)/oligo(dG); assay type: biochemical
# T1 construct: recombinant HIV-1 RT enzyme (p66/51 dimer)
# Protocol: RT Inhibition Assay. Analysis of the effects of the compounds on recombinant HIV-1 RT enzyme (p66/51 dimer) was performed as previously described. See, Buckheit, R. W. J.; Fliakas-Boltz, V.; Decker, W. D.; Robertson, J. L.; Stup, T. L.; Pyle, C. […] Antiviral Res. 1995, 26, 117-132, the disclosure of which is incorporated herein by reference. Briefly, inhibition of purified recombinant reverse transcriptase enzyme was measured by the incorporation of [^32P]GTP into poly(rC)/oligo(dG) (rCdG) homopolymer template primers.
# HIV-1RF = assay: MTS cytoprotection assay, HIV-1RF infection in CEM-SS cells; assay type: cell-based; conditions: Human immunodeficiency virus 1; HIV-1RF in CEM-SS cells; read-out: EC50 HIV-1RF (inhibition of cytopathicity)
# Protocol: (§1) In Vitro Antiviral Assays. Evaluation of the antiviral activity of compounds against HIV-1RF infection in CEM-SS cells was performed using the MTS cytoprotection assay as previously described. See, Rice, W. G.; Bader, J. P. Discovery and in Vitro Development of AIDS Antiviral Drugs as Biopharmaceuticals. Adv. Pharmacol. (San Diego) 1995, 6, 389-438, the disclosure of which is incorporated herein by reference. […] See, Pauwels, R.; Balzarini, J.; Baba, M.; Snoeck, R.; Schols, D.; Herdewijn, P.; Desmyter, J.; De Clercq, E. Rapid and Automated Tetrazolium-based Colorimetric Assay for Detection of Anti-HIV Compounds. J. Virol. Methods 1988, 20, 309-321, the disclosure of which is incorporated herein by reference.
# HIV-1 strain IIIB = assay: MTT assay, HIV-1 strain IIIB in MT-4 cells; assay type: cell-based; conditions: Human immunodeficiency virus 1, MT4; HIV-1IIIB in MT-4 cells; read-out: EC50 HIV-1IIIB (inhibition of cytopathicity)
# [2] = Cytotoxicity in mock-infected CEM-SS cells; assay type: cell-based; conditions: human, uninfected (mock-infected) CEM-SS cells
# Protocol: as §1, with “[…].;” for “D.; Herdewijn, P.; Desmyter, J.;”, “[…].” for “Clercq, E.”
# [3] = Cytotoxicity in mock-infected MT-4 cells; assay type: cell-based; conditions: human, uninfected (mock-infected) MT-4 cells
# [4] = In vitro hydrolytic stability study in rat plasma; assay type: in vitro ADME; conditions: for Rat Plasma tp1/2 (min ± SD): rat plasma in vitro, half-life; for hydrolysis in rat plasma: 37° C.
# Protocol: NMR spectra were obtained at 300 MHz (^1H) and 75 MHz (^13C) in CDCl3 using CHCl3 as internal standard. Flash chromatography was performed with 230-400 mesh silica gel. […] Melting points are uncorrected. Unless otherwise stated, chemicals and solvents were of reagent grade and used as obtained from commercial sources without further purification. Tetrahydrofuran (THF) was freshly distilled from sodium/benzophenone ketyl radical prior to use. Dichloromethane was freshly distilled from calcium hydride prior to use. Lyophilized rat plasma (lot 052K7609) was obtained from Sigma Chemical Co., St. Louis, Mo. All yields given refer to isolated yields.
# In vitro Hydrolytic Stability Study in Rat Plasma. […] See, Silvestri, M. A.; Nagarajan, M.; De Clercq, E.; Pannecouque, C.; Cushman, M. Design, Synthesis, Anti-HIV Activities, and Metabolic Stabilities of Alkenyldiarylmethane (ADAM) Non-nucleoside Reverse Transcriptase Inhibitors. J. Med. Chem. 2004, 47, 3149-3162, the disclosure of which is incorporated herein by reference.
# HIV-2 strain (ROD) = assay: MTT assay, HIV-2 strain (ROD) in MT-4 cells; assay type: cell-based; conditions: Human immunodeficiency virus 2, MT4; HIV-2ROD in MT-4 cells; read-out: EC50 HIV-2-ROD (inhibition of cytopathicity)
SMILES,IC50 [1] [µM],EC50 (HIV-1RF) [µM],EC50 (HIV-1 strain IIIB) [µM],CC50 [2] [µM],CC50 [3] [µM],Rat Plasma tp1/2 (min ± SD) [4] [min],EC50 (HIV-2 strain (ROD)) [µM],hydrolysis in rat plasma ([4]; after three days),hydrolysis in rat plasma ([4]; after 1 day)
COC(=O)c1cc(/C(=C\CCN2CCOC2=O)c2ccc(OC)c(OC)c2)cc(C)c1OC [Compound 3],1,> 100,> 1.05,0.49,1.05,5.76 ± 0.68,> 1.05,,
"COC(=O)c1cc(/C(=C/CCN2CCOC2=O)c2ccc(OC)c(OC)c2)cc(C)c1OC [Compound 4, (Z)-5-[1-(3,4-Dimethoxyphenyl)-4-(2-oxo-oxazolidin-3-yl)-but-1-enyl]-2-methoxy-3-methyl-benzoic Acid Methyl Ester]",0.9,> 100,> 33.8,0.6,83.1,0.79 ± 0.10,> 35.4,,
"COC(=O)c1cc(/C(=C\CCN2CCOC2=O)c2cc(F)cc(C(F)(F)F)c2)cc(C)c1OC [Compound 7, (E)-5-[1-(3-Fluoro-5-trifluoromethylphenyl)-4-(2-oxo-oxazolidin-3-yl)-but-1-enyl]-2-methoxy-3-methylbenzoic Acid Methyl Ester]",15.7,8.3,,15,,,,,
"COc1ccc(/C(=C\CCN2CCOC2=O)c2cc(F)cc(C(F)(F)F)c2)cc1OC [Compound 8, (E)-3-[4-(3-Fluoro-5-trifluoromethylphenyl)-4-(3,4-dimethoxyphenyl)-but-3-enyl]-oxazolidin-2-one]",97.8,> 100,,14.5,,,,had not been hydrolyzed,
"COc1ccc(/C(=C\CCN2CCOC2=O)c2cc(F)ccc2C(F)(F)F)cc1OC [Compound 9, (E)-3-[4-(5-Fluoro-2-trifluoromethylphenyl)-4-(3,4-dimethoxyphenyl)-but-3-enyl]-oxazolidin-2-one]",> 100,> 100,,26.7,,,,had not been hydrolyzed,
"COC(=O)CCC/C=C(/c1cc(Cl)c(OC)c(C(=O)OC)c1)c1cc(Cl)ccc1OC [Compound 10, (Z)-3-Chloro-5-[1-(5-chloro-2-methoxyphenyl)-5-methoxycarbonyl-pent-1-enyl]-2-methoxybenzoic Acid Methyl Ester]",> 100,> 100,,15.5,,0.77 ± 0.08,,,
"COC(=O)CCC/C=C(/c1cc(C)c(OC)c(C(=O)OC)c1)c1cc(Cl)ccc1OC [Compound 11, (Z)-5-[1-(5-Chloro-2-methoxyphenyl)-5-methoxycarbonyl-pent-1-enyl]-2-methoxy-3-methylbenzoic Acid Methyl Ester]",> 100,> 100,,8,,0.98 ± 0.02,,,
"COC(=O)CCC/C=C(\c1cc(F)cc(C(F)(F)F)c1)c1cc(C)c(OC)c(C(=O)OC)c1 [Compound 12, (Z)-5-[1-(3-Fluoro-5-trifluoromethylphenyl)-5-methoxycarbonyl-pent-1-enyl]-2-methoxy-3-methylbenzoic Acid Methyl Ester]",> 100,> 5,> 5.51,> 5,5.7,,> 5.89,,
"COC(=O)CCC/C=C(\c1cc(F)cc(C(F)(F)F)c1)c1cc(Cl)c(OC)c(C(=O)OC)c1 [Compound 13, (E)-3-Chloro-5-[1-(3-fluoro-5-trifluoromethylphenyl)-5-methoxycarbonyl-pent-1-enyl]-2-methoxy-benzoic Acid Methyl Ester]",> 100,> 100,,16.1,,,,,
"COC(=O)CCC/C=C(\c1cc(C)c(OC)c(C(=O)OC)c1)c1cc(Cl)ccc1OC [Compound 14, (E)-5-[1-(5-Chloro-2-methoxyphenyl)-5-methoxycarbonyl-pent-1-enyl]-2-methoxy-3-methylbenzoic Acid Methyl Ester]",> 100,> 100,,8.3,,0.49 ± 0.02,,,
"COC(=O)CCC/C=C(/c1cc(F)cc(C(F)(F)F)c1)c1cc(C)c(OC)c(C(=O)OC)c1 [Compound 15, (E)-5-[1-(3-Fluoro-5-trifluoromethylphenyl)-5-methoxycarbonyl-pent-1-enyl]-2-methoxy-3-methylbenzoic Acid Methyl Ester]",55.3,7.3,2.54,9.3,113,4.35 ± 0.41,10.6,,
"COC(=O)CCC/C=C(\c1cccc(C#N)c1)c1cc(Cl)c(OC)c(C(=O)OC)c1 [Compound 17, (E)-3-Chloro-5-[1-(3-cyanophenyl)-5-methoxycarbonyl-pent-1-enyl]-2-methoxybenzoic Acid Methyl Ester]",0.75,7.1,8.55,20.2,213,0.44 ± 0.05,> 223,,
"COC(=O)CCC/C=C(\c1cccc(C#N)c1)c1cc(Cl)ccc1OC [Compound 18, (E)-6-(5-Chloro-2-methoxyphenyl)-6-(3-cyanophenyl)-hex-5-enoic Acid Methyl Ester]",0.78,7,9.11,16.3,≥ 45.1,0.42 ± 0.02,> 67.6,,
"COC(=O)CCC/C=C(\c1cc(F)cc(C(F)(F)F)c1)c1cc(C)c2onc(OC)c2c1 [Compound 19, (Z)-6-(3-Fluoro-5-trifluoromethylphenyl)-6-(3-methoxy-7-methylbenzo[d]isoxazol-5-yl)-hex-5-enoic Acid Methyl Ester]",0.9,,,,,,,,
"COC(=O)CCC/C=C(/c1cc(C)c2on(C)c(=O)c2c1)c1cc(Cl)ccc1OC [Compound 21, (Z)-6-(5-Chloro-2-methoxyphenyl)-6-(2,3-dihydro-2,7-dimethyl-3-oxo-benzo[d]isoxazol-5-yl)-hex-5-enoic Acid Methyl Ester]",8.2,> 100,,13,,0.48 ± 0.06,,,
"COC(=O)CCC/C=C(\c1cc(F)cc(C(F)(F)F)c1)c1cc(C)c2on(C)c(=O)c2c1 [Compound 22, (Z)-6-(2,3-Dihydro-2,7-dimethyl-3-oxo-benzo[d]isoxazol-5-yl)-6-(3-fluoro-5-trifluoromethylphenyl)-hex-5-enoic Acid Methyl Ester]",> 100,> 100,> 35.7,16.8,39.8,,> 43.2,,
"COC(=O)CCC/C=C(/c1cc(C)c2onc(OC)c2c1)c1cc(C)c2oc(=O)n(C)c2c1 [Compound 67, (Z)-6-(3,7-Dimethyl-2-oxo-2,3-dihydro-benzoxazol-5-yl)-6-(3-methoxy-7-methyl-benzo[d]isoxazol-5-yl)-hex-5-enoic Acid Methyl Ester]",0.25,,,,,,,,
"COc1noc2c(C)cc(/C(=C\CCN3CCOC3=O)c3cc(C)c4oc(=O)n(C)c4c3)cc12 [Compound 68, (E)-5-[1-(3-Methoxy-7-methylbenzo[d]isoxazol-5-yl)-4-(2-oxoxazolidin-3-yl)-but-1-enyl]-3,7-dimethyl-3H-benzoxazol-2-one]",3.6,,,,,,,,had not been hydrolyzed

# — patent publication US20080300288A1, “Alkenyldiarylmethanes, Fused Analogs And Syntheses Thereof” (PURDUE RESEARCH FOUNDATION, priority 2005, published 2008)
